Results taken from publication PMC6270288, “Yellow Pigments, Fomitellanols A and B, and Drimane Sesquiterpenoids, Cryptoporic Acids P and Q, from Fomitella fraxinea and Their Inhibitory Activity against COX and 5-LO” (Molecules, 2013).

Legend:
COX-2 = target: T1, COX-2 (Ovis aries, UniProt P79208); experiment: COX-2-catalyzed prostaglandin biosynthesis assay in vitro; format: biochemical, sheep; conditions: for inhibition at 10 µg/mL: 10 μg/mL, COX-2 from sheep placenta
T1 construct: isolated from sheep placenta, purity 70%; purchased Cayman Chemical Company; host or cells: sheep placenta (tissue isolate)
T1 sequence (P79208 17-603): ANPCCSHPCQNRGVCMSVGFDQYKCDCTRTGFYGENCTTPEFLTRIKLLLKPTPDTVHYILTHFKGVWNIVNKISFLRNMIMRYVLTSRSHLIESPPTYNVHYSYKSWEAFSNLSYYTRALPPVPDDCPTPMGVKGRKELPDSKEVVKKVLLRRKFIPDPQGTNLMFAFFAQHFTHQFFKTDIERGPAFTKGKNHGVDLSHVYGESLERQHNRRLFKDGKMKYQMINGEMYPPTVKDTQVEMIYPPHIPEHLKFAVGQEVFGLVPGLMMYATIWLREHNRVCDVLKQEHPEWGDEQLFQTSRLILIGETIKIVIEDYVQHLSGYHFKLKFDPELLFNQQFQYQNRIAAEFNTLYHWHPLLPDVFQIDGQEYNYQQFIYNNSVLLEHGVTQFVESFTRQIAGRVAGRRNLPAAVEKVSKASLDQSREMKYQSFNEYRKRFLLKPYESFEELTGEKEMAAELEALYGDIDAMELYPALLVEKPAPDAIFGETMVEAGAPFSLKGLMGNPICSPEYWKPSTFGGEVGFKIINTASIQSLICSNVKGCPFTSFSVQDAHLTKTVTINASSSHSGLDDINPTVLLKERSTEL
Method: (§1) Experiments were performed according to Futaki et al. with modification. In brief, 200 U of COX-1 or COX-2 enzyme was suspended in 0.1 M Tris-HCl buffer (PH 7.5) containing hematin (1 μM) and phenol (2 mM), as co-factors. The reaction medium was preincubated with sample for 2 min at 37 °C, and 51.4 μM of […] arachidonic acid (Sigma, St. Louis, MO, USA) was added and incubated for 2 min at 37 °C. To terminate the reaction and extract PGE2, 400 μL of n-hexane/EtOAc (2:1, V/V) was added to the reaction mixture and the preparation was centrifuged at 2,000 rpm for 1 min. The organic solvent phase was discarded. The extraction procedure was repeated twice, then 50 μL EtOH was added to the aqueous phase, and the preparation was at 2,000 rpm for 1 min. The amount of PGE2 was measured by radioimmunoassay using a liquid scintillation counter. COX-1 (EC1.14.99.1, isolated from ram seminal vesicles; Cayman Chemical Company, Ann Arbor, MI, USA) and COX-2 (isolated from sheep placenta, purity 70%; Cayman Chemical Company) were used.

5-LO = target: T2, 5-LO (Rattus norvegicus, UniProt P12527); experiment: Measurement of RBL-1 5-lipoxygenase activity; format: biochemical; conditions: RBL-1 cell homogenate; for inhibition at 10 µg/mL: 10 μg/mL; for IC50: triplicate five-point titration
T2 construct: RBL-1 cell homogenate (1.5 × 10^7 cells); endogenous in cells; host or cells: RBL-1 (rat basophilic leukemia-1) cell homogenate
T2 sequence (P12527 1-673): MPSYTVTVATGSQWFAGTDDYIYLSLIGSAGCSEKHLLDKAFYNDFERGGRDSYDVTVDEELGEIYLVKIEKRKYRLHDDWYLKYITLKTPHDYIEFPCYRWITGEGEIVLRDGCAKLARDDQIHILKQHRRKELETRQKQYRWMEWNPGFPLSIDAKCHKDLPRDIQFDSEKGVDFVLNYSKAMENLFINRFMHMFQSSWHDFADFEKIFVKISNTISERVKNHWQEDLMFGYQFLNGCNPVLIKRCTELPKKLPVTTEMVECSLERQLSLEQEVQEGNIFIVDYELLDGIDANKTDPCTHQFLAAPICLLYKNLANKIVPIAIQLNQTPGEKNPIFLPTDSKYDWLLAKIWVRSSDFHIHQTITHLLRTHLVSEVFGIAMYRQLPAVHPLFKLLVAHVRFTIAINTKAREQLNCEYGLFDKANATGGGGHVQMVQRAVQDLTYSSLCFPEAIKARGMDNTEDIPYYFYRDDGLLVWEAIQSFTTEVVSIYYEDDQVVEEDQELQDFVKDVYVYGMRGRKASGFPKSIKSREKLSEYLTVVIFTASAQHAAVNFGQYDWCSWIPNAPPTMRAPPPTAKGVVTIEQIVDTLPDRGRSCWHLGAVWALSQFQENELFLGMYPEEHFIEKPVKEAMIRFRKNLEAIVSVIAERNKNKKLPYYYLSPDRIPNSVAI
Method: The modified method of Blackman et al. was used. Rat basophilic leukemia-1 (RBL-1) cells were grown in RPMI-1640 medium containing 10% heat-inactivated newborn calf serum (NCS), penicillin 100 units/mL, and streptomycin […]. Cells were cultured at 37 °C in 5% CO2. The assay system (0.5 mL) consisted of 50 mM phosphate buffer (pH 7.4), the test compound, 2 mM CaCl2, 0.66 mM arachidonic acid, and RBL-1 cell homogenate (1.5 × 10^7 cells). Reaction mixtures were incubated at 37 °C for 3 min, and then MeOH (0.5 mL) was added to terminate the reaction. The mixture was centrifuged to remove the precipitated proteins, 5-HETE in the supernatant was analyzed by HPLC. The mixture was eluted through a Cosmosil 5C18 column (4.6 × 150 mm) at room temperature with 85% CH3CN at 235 nm.

COX-1 = target: T3, COX-1 (Ovis aries, UniProt P05979); experiment: COX-1-catalyzed prostaglandin biosynthesis assay in vitro; format: biochemical, ram; conditions: for inhibition at 10 µg/mL: 10 μg/mL, COX-1 from ram seminal vesicles; for IC50: triplicate five-point titration
T3 construct: isolated from ram seminal vesicles; purchased Cayman Chemical Company; host or cells: ram seminal vesicles (tissue isolate)
T3 sequence (P05979 25-600): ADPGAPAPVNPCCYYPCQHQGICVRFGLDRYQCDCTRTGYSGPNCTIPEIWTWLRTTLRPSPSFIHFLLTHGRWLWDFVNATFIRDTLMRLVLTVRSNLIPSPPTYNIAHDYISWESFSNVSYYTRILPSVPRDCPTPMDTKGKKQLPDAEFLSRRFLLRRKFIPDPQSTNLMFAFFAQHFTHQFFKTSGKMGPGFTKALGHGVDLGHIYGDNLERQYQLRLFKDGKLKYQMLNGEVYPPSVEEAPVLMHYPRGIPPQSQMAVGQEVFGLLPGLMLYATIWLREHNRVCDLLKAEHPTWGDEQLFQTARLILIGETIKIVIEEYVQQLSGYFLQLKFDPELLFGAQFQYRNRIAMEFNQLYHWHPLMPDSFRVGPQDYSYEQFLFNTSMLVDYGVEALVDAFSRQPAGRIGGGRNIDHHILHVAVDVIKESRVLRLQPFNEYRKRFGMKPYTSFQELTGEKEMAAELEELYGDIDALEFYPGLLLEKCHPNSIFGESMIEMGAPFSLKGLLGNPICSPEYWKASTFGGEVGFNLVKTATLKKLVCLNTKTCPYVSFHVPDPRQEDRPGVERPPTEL
Method: as §1

SMILES	inhibition at 10 µg/mL (COX-2)	inhibition at 10 µg/mL (5-LO)	inhibition at 10 µg/mL (COX-1)	IC50 (5-LO)	IC50 (COX-1)	inhibitory activities against COX-2 (in words) (COX-2)
C=C1CC[C@H]2[C@](C)(COC(C)=O)CCC[C@]2(C)[C@H]1CO[C@@H](C(=O)O)[C@H](CC(=O)O)C(=O)OC [Compound 3, Cryptoporic acid P]	1.7%	14.9%	40.2%	–	–	–
C=C1CC[C@H]2[C@](C)(COC(C)=O)CCC[C@]2(C)[C@H]1CO[C@@H](C(=O)OC)[C@H](CC(=O)O)C(=O)OC [Compound 4, Cryptoporic acid Q]	10.3%	50.1%	66.5%	204 µM	78.8 µM	–
C[C@]12c3c(ccc(O)c3C=C3C(CO)=CC(=O)[C@@H]31)O[C@@H]2O [Compound 1]	–	–	–	15.1 µM	–	not apparent
CC(C)O[C@H]1Oc2ccc(O)c3c2[C@@]1(C)[C@H]1C(=O)C=C(CO)C1=C3 [Compound 1a, 5-hydroxy-7-hydroxymethyl-1-isopropoxy-9b-methyl-9a,9b-dihydro-H-2-oxa-cyclopenta[d]acenaphthylen-9-one]	7.5%	84.7%	90.5%	15.1 µM	47.7 µM	–
C=C1CC[C@H]2[C@](C)(CO)CCC[C@]2(C)[C@H]1CO[C@@H](C(=O)O)[C@H](CC(=O)O)C(=O)OC [Compound 6, cryptoporic acid N]	19%	28.9%	35.8%	–	–	–
